Converted amounts (≈) assume the structure as drawn.
Experiments:
Assay in all cases: MIC, solid dilution method
[1] = test system: Serratia marcescens 14541; format: cell-based; conditions: Sma 14541, CRE clinical isolate, MHA agar, 37° C., 16-20 hours, read-out: MIC
Protocol: CRE Acinetobacter baumannii 8476, 6383, a total of 2 strains; CRE Serratia marcescens 14541, a total of 1 strain; all collected in the Department of Infectious Diseases, West China Hospital, Chengdu, Sichuan Province, and kept in our laboratory.
(§1) The above-mentioned glycerol-preserved strains were taken out from the −80° C. refrigerator, streaked and inoculated on MHA plates, labeled, and cultured overnight in a 37° C. incubator.
(§2) The inoculum was prepared directly from bacterial suspension, and several recovered colonies were picked and directly prepared into a bacterial suspension with a turbidity of No. 0.5 McFarland units in normal saline, and a 10-fold dilution was made during inoculation.
(§3) 6 bottles of MHA culture medium 500 mL/bottle were prepared, and the pH was adjusted to 7.2-7.4, sterilized at 121° C. for 15 min, and the medium was placed in a 55° C. water bath to keep warm.
(§4) Sterile blank petri dishes were taken, and marked with each FL drug/concentration according to 2-fold dilution, and 10 concentrations of each drug starting from 8 μg/mL were tested.
(§5) […]; 20 mL was aspirated and added to a petri dish consistent with the mark, and then 20 mL of MHA culture medium was added to the rest of the drug-containing culture medium, mixed evenly, that is, the 2-fold diluted drug-containing culture medium; 20 mL was aspirated and added to the petri dish consistent with the mark, and then diluted to the 10th concentration and the […] respectively by repeating the above-mentioned steps, and then poured into the petri dish.
(§6) 4 bacterial control petri dishes without drug were prepared at the same time as a control.
(§7) The positioning needle and the inoculation needle were installed according to the order of placement of the colony on the inoculation plate. After inoculation, a bacterial solution circle was formed on the petri dish. After the bacterial solution was absorbed by the agar, the petri dish was placed in an incubator at 37° C. for overnight incubation (16-20 hours), and then taken out.
(§8) The minimum inhibitory concentrations of the compounds against the CRE and CSE strains were determined by the solid dilution method, and the results are shown in Tables 3 and 4.

[2] = test system: Citrobacter freundii 9484; format: cell-based; conditions: C.f 9484, CRE clinical isolate, MHA agar, 37° C., 16-20 hours, read-out: MIC
Protocol: (§9) CRE Citrobacter freundii 9434, 9484 and CSE Citrobacter freundii 7646, a total of 3 strains;
as §1, §2, §3, §4, §5, §6, §7, §8

[3] = test system: Citrobacter freundii 9434; format: cell-based; conditions: C.f 9434, CRE clinical isolate, MHA agar, 37° C., 16-20 hours, read-out: MIC
Protocol: as §9, §1, §2, §3, §4, §5, §6, §7, §8

[4] = test system: Citrobacter freundii 7646; format: cell-based; conditions: C.f 7646, CSE clinical isolate, MHA agar, 37° C., 16-20 hours, read-out: MIC
Protocol: as §9, §1, §2, §3, §4, §5, §6, §7, §8

E. ae 14186 = format: cell-based, Enterobacter aerogenes; conditions: Klebsiella aerogenes; E. ae 14186; MHA agar, 37° C., 16-20 hours; read-out: MIC
Protocol: as §1, §2, §3, §4, §5, §6, §7, §8

[5] = test system: Enterobacter cloacae 11699; format: cell-based; conditions: E. cl 11699, CSE clinical isolate, MHA agar, 37° C., 16-20 hours, read-out: MIC
Protocol: as §1, §2, §4, §6, §7

[6] = test system: Enterobacter cloacae 11090; format: cell-based; conditions: E. cl 11090, CRE clinical isolate, MHA agar, 37° C., 16-20 hours, read-out: MIC
Protocol: as §1, §2, §4, §6, §7

[7] = test system: Enterobacter cloacae 14653; format: cell-based; conditions: E. cl 14653, CRE clinical isolate, MHA agar, 37° C., 16-20 hours, read-out: MIC
Protocol: as §1, §2, §4, §6, §7

**Q.** Which MIC [1] does the source give for CC1(C)[C@H](NC(=O)/C(=N\O[C@@H](COc2ccc3c(c2)CN(C(=N)N[C@@H]2CCCNC2)C3)C(=O)O)c2csc(N)n2)C(=O)N1OS(=O)(=O)O [Compound 41] here?
**A.** > 8 µg/mL

**Q.** What about the MIC [2] of the same molecule?
**A.** 0.06 µg/mL (≈ 0.0845 µM)

**Q.** And the MIC [3]?
**A.** 0.125 µg/mL (≈ 0.176 µM)

**Q.** What about the MIC [4] of the same molecule?
**A.** 0.125 µg/mL (≈ 0.176 µM)

**Q.** What about the MIC (E. ae 14186) of the same molecule?
**A.** 0.25 µg/mL (≈ 0.352 µM)

**Q.** And the MIC [5]?
**A.** 0.06 µg/mL (≈ 0.0845 µM)

**Q.** What about the MIC [6] of the same molecule?
**A.** 1 µg/mL (≈ 1.41 µM)

**Q.** And the MIC [7]?
**A.** 0.5 µg/mL (≈ 0.704 µM)

**Q.** With CC1(C)[C@H](NC(=O)/C(=N\O[C@@H](COc2ccc(C(=N)N[C@@H]3CCCNC3)cc2)C(=O)O)c2csc(N)n2)C(=O)N1OS(=O)(=O)O [AIC499, reference compound] as the molecule, how does the MIC [1] read?
**A.** > 8 µg/mL

**Q.** And the MIC [2]?
**A.** 0.25 µg/mL (≈ 0.374 µM)

**Q.** What about the MIC [3] of the same molecule?
**A.** 0.5 µg/mL (≈ 0.748 µM)

**Q.** And the MIC [4]?
**A.** 0.5 µg/mL (≈ 0.748 µM)

**Q.** And the MIC (E. ae 14186)?
**A.** 1 µg/mL (≈ 1.5 µM)

**Q.** And the MIC [5]?
**A.** 0.06 µg/mL (≈ 0.0897 µM)

**Q.** And the MIC [6]?
**A.** 2 µg/mL (≈ 2.99 µM)

**Q.** And the MIC [7]?
**A.** 1 µg/mL (≈ 1.5 µM)

**Q.** CC1(C)[C@H](NC(=O)/C(=N\O[C@@H](COc2ccc3c(c2)CN(C(=N)NCCN)C3)C(=O)O)c2csc(N)n2)C(=O)N1OS(=O)(=O)O [Compound 44] was tested. Which MIC [1] did it give?
**A.** > 8 µg/mL

**Q.** What about the MIC [2] of the same molecule?
**A.** 0.03 µg/mL (≈ 0.0448 µM)

**Q.** And the MIC [3]?
**A.** 0.125 µg/mL (≈ 0.187 µM)

**Q.** And the MIC [4]?
**A.** 0.125 µg/mL (≈ 0.187 µM)

**Q.** And the MIC (E. ae 14186)?
**A.** 0.25 µg/mL (≈ 0.373 µM)

**Q.** What about the MIC [5] of the same molecule?
**A.** 0.03 µg/mL (≈ 0.0448 µM)

**Q.** And the MIC [6]?
**A.** 0.5 µg/mL (≈ 0.747 µM)

**Q.** And the MIC [7]?
**A.** 0.25 µg/mL (≈ 0.373 µM)

**Q.** CC1(C)[C@H](NC(=O)/C(=N\O[C@@H](COc2ccc3c(c2)CN(C(=N)NOCCN)C3)C(=O)O)c2csc(N)n2)C(=O)N1OS(=O)(=O)O [Compound 43] was tested. Which MIC [1] did it give?
**A.** > 8 µg/mL

**Q.** And the MIC [2]?
**A.** 0.125 µg/mL (≈ 0.182 µM)

**Q.** And the MIC [3]?
**A.** 0.5 µg/mL (≈ 0.729 µM)

**Q.** And the MIC [4]?
**A.** 0.5 µg/mL (≈ 0.729 µM)

**Q.** What about the MIC (E. ae 14186) of the same molecule?
**A.** 1 µg/mL (≈ 1.46 µM)

**Q.** And the MIC [5]?
**A.** 0.125 µg/mL (≈ 0.182 µM)

**Q.** And the MIC [6]?
**A.** 2 µg/mL (≈ 2.92 µM)

**Q.** What about the MIC [7] of the same molecule?
**A.** 1 µg/mL (≈ 1.46 µM)

**Q.** Which results are given for CC1(C)[C@H](NC(=O)/C(=N\O[C@@H](COc2ccc3c(c2)CN(/C(=N\[C@@H]2CCCNC2)N[C@@H]2CCCNC2)C3)C(=O)O)c2csc(N)n2)C(=O)N1OS(=O)(=O)O [Compound 46]?
**A.** MIC [1]: > 8 µg/mL; MIC [2]: 0.06 µg/mL (≈ 0.0757 µM); MIC [3]: 0.125 µg/mL (≈ 0.158 µM); MIC [4]: 0.125 µg/mL (≈ 0.158 µM); MIC (E. ae 14186): 0.25 µg/mL (≈ 0.315 µM); MIC [5]: 0.125 µg/mL (≈ 0.158 µM); MIC [6]: 1 µg/mL (≈ 1.26 µM); MIC [7]: 0.5 µg/mL (≈ 0.631 µM)

**Q.** Which MIC [1] does the source give for CC1(C)[C@H](NC(=O)/C(=N\O[C@@H](COc2ccc3c(c2)CN(C(=N)N(CCCN)CCCN)C3)C(=O)O)c2csc(N)n2)C(=O)N1OS(=O)(=O)O [Compound 32] here?
**A.** 4 µg/mL (≈ 5.4 µM)

**Q.** And the MIC [2]?
**A.** 0.03 µg/mL (≈ 0.0405 µM)

**Q.** And the MIC [3]?
**A.** 0.06 µg/mL (≈ 0.081 µM)

**Q.** What about the MIC [4] of the same molecule?
**A.** 0.06 µg/mL (≈ 0.081 µM)

**Q.** And the MIC (E. ae 14186)?
**A.** 0.125 µg/mL (≈ 0.169 µM)

**Q.** What about the MIC [5] of the same molecule?
**A.** 0.03 µg/mL (≈ 0.0405 µM)

**Q.** What about the MIC [6] of the same molecule?
**A.** 0.5 µg/mL (≈ 0.675 µM)

**Q.** And the MIC [7]?
**A.** 0.25 µg/mL (≈ 0.337 µM)
